Consider 1 compound from patent publication US7410955B2, “Therapeutic use of agonist ligands specific to G2A receptor” (Biosynergen, Inc., priority 2002, dated 2008).

Test [1] concerns E. coli (DH5a). Kind of test: Bacteria-induced sepsis model. Type of test: in vivo, ICR mice. The following applies: 10 mg/kg subcutaneous, 2 and 14 hours after i.p. E. coli. As for the experimental part: (§1) ICR mice (25-30 g in body weight; MJ Ltd.) were intraperitoneally injected with alive 10^8 cells/ml E. coli (DH5a) that were suspended in 0.5 ml of PBS (phosphate-buffered saline) to cause peritonitis, thereby inducing sepsis.
After the peritoneal cavity of mice had been exposed, it was washed with sterilized saline (2 ml). The resultant solution was diluted with HBSS (Sigma Chemical Co., USA) in a ratio of 1/1000, and then 10 μl of each diluted solution was spread on Trypticase Soy agar (BBL, Becton Dickinson Co., USA) plates. After overnight incubation at 37° C., colony forming unit (CFU) was measured.
14 ICR mice of bacteria-induced septicemia model according to Reference Example <1-1> a) were divided into two groups of 7 mice. 7 mice were administered with 1-stearoyl LPC (Sigma Chemical Co., USA) dissolved in 1% BSA (bovine serum albumin) solution containing no fatty acid in an amount of 10 mg/kg by subcutaneous injection, 2 and 14 hours after E. coli was intraperitoneally injected, respectively (experimental group). The remaining 7 mice were administered with 1% BSA solution containing no fatty acid of the same amount as above, instead of LPC, in the same manner (control group). […] Also, the number of intraperitoneal E. coli cells 24 hours after the intraperitoneal injection was measured in accordance with the method described in Reference Example 3.

The subject of test [2] is neutrophils. Kind of test: Bactericidal activity of neutrophils from bacteria-induced sepsis model mice. Type of test: cell-based. To be noted: 30 μM 1-stearoyl LPC for 1 hour after E. coli ingestion, 1 hour killing time; vs PBS control. As for the experimental part: as §1
The isolated neutrophils were adhered to the cover slip coated with poly-L-Lysine (0.01%) in a cell incubator maintained at 37° C., at a cell concentration of 10^6 cells/ml for 1 hour. Thereafter, E. coli was added thereto in a concentration of 10^6 cells/ml and cultured for 1 hour. E. coli cells that were not ingested by neutrophils were removed by washing the cover slip with PBS buffer. The cover slip was then treated with […] 1-stearoyl LPC, and further cultured for another 1 hour. In this stage, the cover slip of the control group was treated with PBS buffer, instead of LPC. Thereafter, after the exchange of a new RPMI-1640 medium, they were further cultured for 1 hour to give killing time. Then, the neutrophils were broken using Triton X-100 (0.05%), and accordingly E. coli cells were recovered. The recovered E. coli cells were spread onto a plate and cultured in an incubator maintained at 37° C. The number of E. coli cells that had grown on the medium was counted and subjected to statistical analysis. […]

Test [3] relates to monocytes (human PBMC). Kind of test: IL-8 release induced by LPS in monocytes (ELISA). The following applies: 15 μM and 30 μM, 1 hour before 1 μg/ml LPS, supernatant after 3 hours. Type of test: cell-based. Here is the method: Peripheral bloods were collected from a healthy person, put into a heparinized tube and then well mixed with 1× PBS buffer. Then, they were layered in Ficoll-Hypaque solution (density 1.077, Sigma Chemical Co., USA) and then centrifuged at 2500 rpm at 4° C. for 25 min. After the monocyte layer between Ficoll layer and plasma layer had been cautiously recovered, 1×PBS buffer was added thereto and mixed well. It was then centrifuged again at 2500 rpm at 4° C. for 25 min. Such centrifugation procedures were repeated twice until red blood cells were depleted. Thereafter, the pellet was cultured in FBS at 37° C. for 15 min and centrifuged at 2500 rpm for 10 min. Then, 1×PBS buffer was added again to the pellet. The isolated cells were layered in percoll solution (density 1.066) and then centrifuged at 2500 rpm at 4° C. for 30 min. After only monocyte layer had been recovered from the isolated layers, 1×PBS buffer was added thereto. They were centrifuged at 2500 rpm for 15 min. […]
The neutrophils and monocytes isolated in Examples <2-1> and <2-2> above were cultured in a 96-well plate to which RPMI1640 medium containing 10% FBS was added, at a concentration of 1×10^5 cells/well/0.2 ml, respectively. […] Then, the level of IL-8 was measured using ELISA kit (Biosource, USA).

`CCCCCCCCCCCCCCCCCC(=O)OCC(O)COP(=O)([O-])OCC[N+](C)(C)C` (stereo not shown) [1-stearoyl LPC, 1-stearoyl (18:0) lysophosphatidylcholine]: the “number of intraperitoneal E. coli cells” value in test [1] (24 hours after injection, P<0.01) is given as “remarkably decreased”. Moreover, the “death rate due to septicemia (survival rate over time)” value in test [1] (P<0.05) is reported as “significantly suppressed”. Also, the “number of alive E. coli recovered from neutrophils” value in test [2] is “significantly decreased”. Besides, the “level of IL-8 release that had been increased by LPS in monocytes” value in test [3] is “inhibited by LPC in a concentration-dependent manner”.
